Laboratory results reported in the supplement of paper PMC8617591.

Columns and labels:
[1] = test system: Mycobacterium tuberculosis Erdman (autoluminescent); assay: total FIC50 (Loewe) at 50% inhibition, three-drug combination (log2); higher = more antagonistic
Description: (§1)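 DiaMOND equipotent three-drug combination dose responses (10 doses, 1.5- or 2-fold spacing, centred on IC90) against autoluminescent M. tuberculosis Erdman in 8 in vitro models. Read-out is OD600, or luminescence for the intracellular and dormancy models, normalised to untreated wells. Hill-fit Einf, AUC25 and GRinf are potency metrics; FIC50 and FIC90 are total Loewe fractional inhibitory concentrations as log2 (negative = synergy).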

[2] = test system: Mycobacterium tuberculosis Erdman (autoluminescent); assay: total FIC90 (Loewe) at 90% inhibition, three-drug combination (log2); higher = more antagonistic
Description: as §1

[3] = test system: Mycobacterium tuberculosis Erdman (autoluminescent); assay: Einf, fitted maximum growth inhibition of three-drug combination (fraction); higher = stronger maximal inhibition
Description: as §1

[4] = test system: Mycobacterium tuberculosis Erdman (autoluminescent); assay: AUC25, normalised area under dose response up to IC25 (three-drug combination) (fraction (0-1)); higher = more potent at low dose
Description: as §1

[5] = test system: Mycobacterium tuberculosis Erdman (autoluminescent); assay: GRinf, maximum normalised growth rate inhibition (three-drug combination) (unitless (-1 to 1)); higher = less effect (negative = killing)
Description: as §1

[6] = in vitro model: acidic pH 5.7, time point: constant (~7 days, model-specific)
[7] = in vitro model: acidic pH 5.7, time point: terminal (~4-5 doublings, model-specific)
[8] = in vitro model: butyrate, time point: constant (~7 days, model-specific)
[9] = in vitro model: butyrate, time point: terminal (~4-5 doublings, model-specific)
[10] = in vitro model: cholesterol 0.05 mM, time point: constant (~7 days, model-specific)
[11] = in vitro model: cholesterol 0.05 mM, time point: terminal (~4-5 doublings, model-specific)
[12] = in vitro model: cholesterol-high 0.2 mM, time point: constant (~7 days, model-specific)
[13] = in vitro model: cholesterol-high 0.2 mM, time point: terminal (~4-5 doublings, model-specific)
[14] = in vitro model: dormancy (butyrate + nitrate, low O2), time point: constant (~7 days, model-specific)
[15] = in vitro model: dormancy (butyrate + nitrate, low O2), time point: terminal (~4-5 doublings, model-specific)
[16] = in vitro model: standard 7H9 glycerol, time point: constant = terminal
[17] = in vitro model: valerate, time point: constant (~7 days, model-specific)
[18] = in vitro model: valerate, time point: terminal (~4-5 doublings, model-specific)
[19] = in vitro model: intracellular J774, time point: constant = terminal

In the case of `CC[C@@H](CO)NCCN[C@@H](CC)CO` [ethambutol] + CO[C@H]1/C=C/O[C@@]2(C)Oc3c(C)c(O)c4c(O)c(c(/C=N/N5CCN(C6CCCC6)CC5)c(O)c4c3C2=O)NC(=O)/C(C)=C\C=C\[C@H](C)[C@H](O)[C@@H](C)[C@@H](O)[C@@H](C)[C@H](OC(C)=O)[C@@H]1C [rifapentine] + CO[C@H]1/C=C/O[C@@]2(C)Oc3c(C)c(O)c4c(O)c(c(/C=N/N5CCN(C)CC5)c(O)c4c3C2=O)NC(=O)/C(C)=C\C=C\[C@H](C)[C@H](O)[C@@H](C)[C@@H](O)[C@@H](C)[C@H](OC(C)=O)[C@@H]1C [rifampicin], the “total FIC50” value [1, 6] is reported as -0.0556, the “total FIC50” value [1, 7] is reported as 0.0683 and the “total FIC50” value [1, 8] is reported as 0.0694. The “total FIC50” value [1, 9] was 0.0725, the “total FIC50” value [1, 10] was -0.109 and the “total FIC50” value [1, 11] was -0.106. For the same compound, the “total FIC50” value [1, 12] was 0.69, the “total FIC50” value [1, 13] was 0.74 and the “total FIC50” value [1, 14] was -0.0614. For the same compound, the “total FIC50” value [1, 15] was 0.286, the “total FIC50” value [1, 16] was 0.231 and the “total FIC50” value [1, 17] was -0.0551. The “total FIC50” value [1, 18] was 0.133, the “total FIC90” value [2, 7] was -0.673 and the “total FIC90” value [2, 9] was -0.469. The “total FIC90” value [2, 13] was 0.613, the “total FIC90” value [2, 15] was -0.687 and the “total FIC90” value [2, 19] was -2.2. For the same compound, the “total FIC90” value [2, 18] was -0.823, the Einf [3, 6] was 0.863 and the Einf [3, 7] was 0.966. For the same compound, the Einf [3, 8] was 0.924, the Einf [3, 9] was 0.965 and the Einf [3, 10] was 0.674. It also gave an Einf [3, 11] of 0.884, an Einf [3, 12] of 0.947 and an Einf [3, 13] of 1. The Einf [3, 14] was 0.854, the Einf [3, 15] was 0.981 and the Einf [3, 19] was 0.964. The Einf [3, 16] was 0.909, the Einf [3, 17] was 0.889 and the Einf [3, 18] was 0.936. It also gave an AUC25 [4, 6] of 0.0788, an AUC25 [4, 7] of 0.0407 and an AUC25 [4, 8] of 0.0871. For the same compound, the AUC25 [4, 9] was 0.0718, the AUC25 [4, 10] was 0.12 and the AUC25 [4, 11] was 0.0846. It also gave an AUC25 [4, 12] of 0.0408, an AUC25 [4, 13] of 0.0471 and an AUC25 [4, 14] of 0.066. For the same compound, the AUC25 [4, 15] was 0.0493, the AUC25 [4, 16] was 0.0475 and the AUC25 [4, 17] was 0.0622. It also gave an AUC25 [4, 18] of 0.0314, a GRinf [5, 6] of -0.0676 and a GRinf [5, 7] of -0.0521. For the same compound, the GRinf [5, 8] was -0.00846, the GRinf [5, 9] was -0.0114 and the GRinf [5, 10] was -0.208. For the same compound, the GRinf [5, 11] was -0.0993, the GRinf [5, 12] was -0.442 and the GRinf [5, 13] was -0.703. For the same compound, the GRinf [5, 14] was 0.363, the GRinf [5, 15] was -0.104 and the GRinf [5, 19] was -0.359. For the same compound, the GRinf [5, 16] was 0.0838, the GRinf [5, 17] was 0.0114 and the GRinf [5, 18] was 0.0132.
With `CC[C@@H](CO)NCCN[C@@H](CC)CO` [ethambutol] + COc1c(N2C[C@@H]3CCCN[C@@H]3C2)c(F)cc2c(=O)c(C(=O)O)cn(C3CC3)c12 [moxifloxacin] + CO[C@H]1/C=C/O[C@@]2(C)Oc3c(C)c(O)c4c(O)c(c(/C=N/N5CCN(C6CCCC6)CC5)c(O)c4c3C2=O)NC(=O)/C(C)=C\C=C\[C@H](C)[C@H](O)[C@@H](C)[C@@H](O)[C@@H](C)[C@H](OC(C)=O)[C@@H]1C [rifapentine] the “total FIC50” value [1, 6] was 0.231, the “total FIC50” value [1, 7] was 0.724 and the “total FIC50” value [1, 8] was 0.508. For the same compound, the “total FIC50” value [1, 9] was 0.467, the “total FIC50” value [1, 10] was 0.788 and the “total FIC50” value [1, 11] was 1.57. The “total FIC50” value [1, 12] was 1.07, the “total FIC50” value [1, 13] was 1.22 and the “total FIC50” value [1, 14] was 0.142. The “total FIC50” value [1, 15] was 0.309, the “total FIC50” value [1, 16] was 0.47 and the “total FIC50” value [1, 17] was 0.833. The “total FIC50” value [1, 18] was 0.843, the “total FIC90” value [2, 7] was 0.104 and the “total FIC90” value [2, 9] was -0.223. For the same compound, the “total FIC90” value [2, 13] was 0.977, the “total FIC90” value [2, 15] was 0.994 and the “total FIC90” value [2, 19] was -1.53. For the same compound, the “total FIC90” value [2, 16] was 0.148, the “total FIC90” value [2, 18] was -0.33 and the Einf [3, 6] was 0.869. It also gave an Einf [3, 7] of 0.959, an Einf [3, 8] of 0.916 and an Einf [3, 9] of 0.961. The Einf [3, 10] was 0.635, the Einf [3, 11] was 0.834 and the Einf [3, 12] was 0.932. For the same compound, the Einf [3, 13] was 1, the Einf [3, 14] was 0.842 and the Einf [3, 15] was 0.993. The Einf [3, 19] was 0.975, the Einf [3, 16] was 0.906 and the Einf [3, 17] was 0.893. The Einf [3, 18] was 0.942, the AUC25 [4, 6] was 0.071 and the AUC25 [4, 7] was 0.0263. The AUC25 [4, 8] was 0.0619, the AUC25 [4, 9] was 0.0506 and the AUC25 [4, 10] was 0.104. The AUC25 [4, 11] was 0.0642, the AUC25 [4, 12] was 0.0293 and the AUC25 [4, 13] was 0.0405. It also gave an AUC25 [4, 14] of 0.0738, an AUC25 [4, 15] of 0.116 and an AUC25 [4, 16] of 0.044. For the same compound, the AUC25 [4, 17] was 0.0523, the AUC25 [4, 18] was 0.0364 and the GRinf [5, 6] was 0.0546. It also gave a GRinf [5, 7] of -0.0323, a GRinf [5, 8] of 0.00267 and a GRinf [5, 9] of -0.00309. For the same compound, the GRinf [5, 10] was -0.31, the GRinf [5, 11] was 0.155 and the GRinf [5, 12] was -0.315. The GRinf [5, 13] was -0.787, the GRinf [5, 14] was 0.339 and the GRinf [5, 15] was -0.177. It also gave a GRinf [5, 19] of -0.351, a GRinf [5, 16] of 0.0179 and a GRinf [5, 17] of -0.0774. It also gave a GRinf [5, 18] of -0.0136.
